Measured values published in ChEMBL document CHEMBL1671689, “Activity of ceftaroline against recent emerging serotypes of Streptococcus pneumoniae in the United States” (2010).

How the values were obtained:
Type in all cases: functional
Streptococcus pneumoniae [1] = assay: Antimicrobial activity against Streptococcus pneumoniae serotype 19A by broth microdilution method in presence of beta-lactamase inhibitor clavulanic acid
Streptococcus pneumoniae [2] = assay: Antimicrobial activity against Streptococcus pneumoniae serotype 3 by broth microdilution method in presence of beta-lactamase inhibitor clavulanic acid
Streptococcus pneumoniae [3] = assay: Antimicrobial activity against Streptococcus pneumoniae serotype 35B by broth microdilution method in presence of beta-lactamase inhibitor clavulanic acid
Streptococcus pneumoniae [4] = assay: Antimicrobial activity against Streptococcus pneumoniae serotype 7F by broth microdilution method in presence of beta-lactamase inhibitor clavulanic acid
Streptococcus pneumoniae [5] = assay: Antimicrobial activity against Streptococcus pneumoniae serotype 11A by broth microdilution method in presence of beta-lactamase inhibitor clavulanic acid
Streptococcus pneumoniae [6] = assay: Antimicrobial activity against Streptococcus pneumoniae serotype 6C by broth microdilution method in presence of beta-lactamase inhibitor clavulanic acid
Streptococcus pneumoniae [7] = assay: Antimicrobial activity against multiple drug resistant Streptococcus pneumoniae serotype 19A by broth microdilution method in presence of beta-lactamase inhibitor clavulanic acid
Streptococcus pneumoniae [8] = assay: Antimicrobial activity against multiple drug resistant Streptococcus pneumoniae serotype 19F by broth microdilution method in presence of beta-lactamase inhibitor clavulanic acid
Streptococcus pneumoniae [9] = assay: Antimicrobial activity against multiple drug resistant Streptococcus pneumoniae serotype 6B by broth microdilution method in presence of beta-lactamase inhibitor clavulanic acid
Streptococcus pneumoniae [10] = assay: Antimicrobial activity against Streptococcus pneumoniae serotype 19A assessed as percent susceptible isolates by broth microdilution method in presence of beta-lactamase inhibitor clavulanic acid
Streptococcus pneumoniae [11] = assay: Antimicrobial activity against Streptococcus pneumoniae serotype 3 assessed as percent susceptible isolates by broth microdilution method in presence of beta-lactamase inhibitor clavulanic acid
Streptococcus pneumoniae [12] = assay: Antimicrobial activity against Streptococcus pneumoniae serotype 35B assessed as percent susceptible isolates by broth microdilution method in presence of beta-lactamase inhibitor clavulanic acid
Streptococcus pneumoniae [13] = assay: Antimicrobial activity against Streptococcus pneumoniae serotype 7F assessed as percent susceptible isolates by broth microdilution method in presence of beta-lactamase inhibitor clavulanic acid
Streptococcus pneumoniae [14] = assay: Antimicrobial activity against Streptococcus pneumoniae serotype 11A assessed as percent susceptible isolates by broth microdilution method in presence of beta-lactamase inhibitor clavulanic acid
Streptococcus pneumoniae [15] = assay: Antimicrobial activity against Streptococcus pneumoniae serotype 6C assessed as percent susceptible isolates by broth microdilution method in presence of beta-lactamase inhibitor clavulanic acid
Streptococcus pneumoniae [16] = assay: Antimicrobial activity against multiple drug resistant Streptococcus pneumoniae serotype 19A assessed as percent susceptible isolates by broth microdilution method in presence of beta-lactamase inhibitor clavulanic acid
Streptococcus pneumoniae [17] = assay: Antimicrobial activity against multiple drug resistant Streptococcus pneumoniae serotype 19F assessed as percent susceptible isolates by broth microdilution method in presence of beta-lactamase inhibitor clavulanic acid
Streptococcus pneumoniae [18] = assay: Antimicrobial activity against multiple drug resistant Streptococcus pneumoniae serotype 6B assessed as percent susceptible isolates by broth microdilution method in presence of beta-lactamase inhibitor clavulanic acid
Streptococcus pneumoniae [19] = assay: Antimicrobial activity against Streptococcus pneumoniae serotype 15A assessed as percent susceptible isolates by broth microdilution method in presence of beta-lactamase inhibitor clavulanic acid
Streptococcus pneumoniae [20] = assay: Antimicrobial activity against Streptococcus pneumoniae serotype 22F assessed as percent susceptible isolates by broth microdilution method in presence of beta-lactamase inhibitor clavulanic acid
Streptococcus pneumoniae [21] = assay: Antimicrobial activity against Streptococcus pneumoniae serotype 23A assessed as percent susceptible isolates by broth microdilution method in presence of beta-lactamase inhibitor clavulanic acid
Streptococcus pneumoniae [22] = assay: Antimicrobial activity against Streptococcus pneumoniae serotype 23B assessed as percent susceptible isolates by broth microdilution method in presence of beta-lactamase inhibitor clavulanic acid
Streptococcus pneumoniae [23] = assay: Antimicrobial activity against Streptococcus pneumoniae serotype 19F assessed as percent susceptible isolates by broth microdilution method in presence of beta-lactamase inhibitor clavulanic acid
Streptococcus pneumoniae [24] = assay: Antimicrobial activity against Streptococcus pneumoniae serotype 15A assessed as percent susceptible isolates by broth microdilution method
Streptococcus pneumoniae [25] = assay: Antimicrobial activity against Streptococcus pneumoniae serotype 19A by broth microdilution method
Streptococcus pneumoniae [26] = assay: Antimicrobial activity against Streptococcus pneumoniae serotype 3 by broth microdilution method
Streptococcus pneumoniae [27] = assay: Antimicrobial activity against Streptococcus pneumoniae serotype 35B by broth microdilution method
Streptococcus pneumoniae [28] = assay: Antimicrobial activity against Streptococcus pneumoniae serotype 7F by broth microdilution method
Streptococcus pneumoniae [29] = assay: Antimicrobial activity against Streptococcus pneumoniae serotype 11A by broth microdilution method
Streptococcus pneumoniae [30] = assay: Antimicrobial activity against Streptococcus pneumoniae serotype 6C by broth microdilution method
Streptococcus pneumoniae [31] = assay: Antimicrobial activity against multiple drug resistant Streptococcus pneumoniae serotype 19A by broth microdilution method
Streptococcus pneumoniae [32] = assay: Antimicrobial activity against multiple drug resistant Streptococcus pneumoniae serotype 19F by broth microdilution method
Streptococcus pneumoniae [33] = assay: Antimicrobial activity against multiple drug resistant Streptococcus pneumoniae serotype 6B by broth microdilution method
Streptococcus pneumoniae [34] = assay: Antimicrobial activity against Streptococcus pneumoniae serotype 19A assessed as percent susceptible isolates by broth microdilution method
Streptococcus pneumoniae [35] = assay: Antimicrobial activity against Streptococcus pneumoniae serotype 3 assessed as percent susceptible isolates by broth microdilution method
Streptococcus pneumoniae [36] = assay: Antimicrobial activity against Streptococcus pneumoniae serotype 35B assessed as percent susceptible isolates by broth microdilution method
Streptococcus pneumoniae [37] = assay: Antimicrobial activity against Streptococcus pneumoniae serotype 7F assessed as percent susceptible isolates by broth microdilution method
Streptococcus pneumoniae [38] = assay: Antimicrobial activity against Streptococcus pneumoniae serotype 11A assessed as percent susceptible isolates by broth microdilution method
Streptococcus pneumoniae [39] = assay: Antimicrobial activity against Streptococcus pneumoniae serotype 6C assessed as percent susceptible isolates by broth microdilution method
Streptococcus pneumoniae [40] = assay: Antimicrobial activity against multiple drug resistant Streptococcus pneumoniae serotype 19A assessed as percent susceptible isolates by broth microdilution method
Streptococcus pneumoniae [41] = assay: Antimicrobial activity against multiple drug resistant Streptococcus pneumoniae serotype 19F assessed as percent susceptible isolates by broth microdilution method
Streptococcus pneumoniae [42] = assay: Antimicrobial activity against multiple drug resistant Streptococcus pneumoniae serotype 6B assessed as percent susceptible isolates by broth microdilution method
Streptococcus pneumoniae [43] = assay: Antimicrobial activity against Streptococcus pneumoniae serotype 22F assessed as percent susceptible isolates by broth microdilution method
Streptococcus pneumoniae [44] = assay: Antimicrobial activity against Streptococcus pneumoniae serotype 23B assessed as percent susceptible isolates by broth microdilution method
Streptococcus pneumoniae [45] = assay: Antimicrobial activity against Streptococcus pneumoniae serotype 19F assessed as percent susceptible isolates by broth microdilution method
Streptococcus pneumoniae [46] = assay: Antimicrobial activity against Streptococcus pneumoniae serotype 23A assessed as percent susceptible isolates by broth microdilution method

CC1(C)S[C@@H]2[C@H](NC(=O)[C@H](N)c3ccc(O)cc3)C(=O)N2[C@H]1C(=O)O [AMOXICILLIN]
98%: Activity (Streptococcus pneumoniae [14])
8 µg/mL: MIC50 (Streptococcus pneumoniae [1]) | MIC90 (Streptococcus pneumoniae [1]) | MIC50 (Streptococcus pneumoniae [7]) | MIC50 (Streptococcus pneumoniae [8]) | MIC50 (Streptococcus pneumoniae [9])
4 µg/mL: MIC90 (Streptococcus pneumoniae [3])
16 µg/mL: MIC90 (Streptococcus pneumoniae [7]) | MIC90 (Streptococcus pneumoniae [8]) | MIC90 (Streptococcus pneumoniae [9])
2 µg/mL: MIC50 (Streptococcus pneumoniae [3])
≤ 1 µg/mL: MIC (Streptococcus pneumoniae [2]) | MIC50 (Streptococcus pneumoniae [2]) | MIC90 (Streptococcus pneumoniae [2]) | MIC (Streptococcus pneumoniae [4]) | MIC50 (Streptococcus pneumoniae [4]) | MIC90 (Streptococcus pneumoniae [4]) | MIC (Streptococcus pneumoniae [5]) | MIC50 (Streptococcus pneumoniae [5]) | MIC90 (Streptococcus pneumoniae [5]) | MIC (Streptococcus pneumoniae [6]) | MIC50 (Streptococcus pneumoniae [6]) | MIC90 (Streptococcus pneumoniae [6])
37.9%: Activity (Streptococcus pneumoniae [23])
45%: Activity (Streptococcus pneumoniae [10])
62.7%: Activity (Streptococcus pneumoniae [12]) | Activity (Streptococcus pneumoniae [13])
100%: Activity (Streptococcus pneumoniae [11]) | Activity (Streptococcus pneumoniae [15]) | Activity (Streptococcus pneumoniae [19]) | Activity (Streptococcus pneumoniae [20]) | Activity (Streptococcus pneumoniae [21]) | Activity (Streptococcus pneumoniae [22]) | Activity (Streptococcus pneumoniae [24])
8.1%: Activity (Streptococcus pneumoniae [16]) | Activity (Streptococcus pneumoniae [17]) | Activity (Streptococcus pneumoniae [18])

CN[C@H](CC(C)C)C(=O)N[C@H]1C(=O)N[C@@H](CC(N)=O)C(=O)N[C@H]2C(=O)N[C@H]3C(=O)N[C@H](C(=O)N[C@H](C(=O)O)c4cc(O)cc(O)c4-c4cc3ccc4O)[C@H](O)c3ccc(c(Cl)c3)Oc3cc2cc(c3O[C@@H]2O[C@H](CO)[C@@H](O)[C@H](O)[C@H]2O[C@H]2C[C@](C)(N)[C@H](O)[C@H](C)O2)Oc2ccc(cc2Cl)[C@H]1O [VANCOMYCIN]
100%: Activity (Streptococcus pneumoniae [34]) | Activity (Streptococcus pneumoniae [35]) | Activity (Streptococcus pneumoniae [36]) | Activity (Streptococcus pneumoniae [37]) | Activity (Streptococcus pneumoniae [38]) | Activity (Streptococcus pneumoniae [39]) | Activity (Streptococcus pneumoniae [40]) | Activity (Streptococcus pneumoniae [41]) | Activity (Streptococcus pneumoniae [42]) | Activity (Streptococcus pneumoniae [24]) | Activity (Streptococcus pneumoniae [43]) | Activity (Streptococcus pneumoniae [44]) | Activity (Streptococcus pneumoniae [45]) | Activity (Streptococcus pneumoniae [46])
≤ 1 µg/mL: MIC (Streptococcus pneumoniae [25]) | MIC50 (Streptococcus pneumoniae [25]) | MIC90 (Streptococcus pneumoniae [25]) | MIC (Streptococcus pneumoniae [26]) | MIC50 (Streptococcus pneumoniae [26]) | MIC90 (Streptococcus pneumoniae [26]) | MIC (Streptococcus pneumoniae [27]) | MIC50 (Streptococcus pneumoniae [27]) | MIC90 (Streptococcus pneumoniae [27]) | MIC (Streptococcus pneumoniae [28]) | MIC50 (Streptococcus pneumoniae [28]) | MIC90 (Streptococcus pneumoniae [28]) | MIC (Streptococcus pneumoniae [29]) | MIC50 (Streptococcus pneumoniae [29]) | MIC90 (Streptococcus pneumoniae [29]) | MIC (Streptococcus pneumoniae [30]) | MIC50 (Streptococcus pneumoniae [30]) | MIC90 (Streptococcus pneumoniae [30]) | MIC (Streptococcus pneumoniae [31]) | MIC50 (Streptococcus pneumoniae [31]) | MIC90 (Streptococcus pneumoniae [31]) | MIC (Streptococcus pneumoniae [32]) | MIC50 (Streptococcus pneumoniae [32]) | MIC90 (Streptococcus pneumoniae [32]) | MIC (Streptococcus pneumoniae [33]) | MIC50 (Streptococcus pneumoniae [33]) | MIC90 (Streptococcus pneumoniae [33])
